Literature values in patent publication US8298564B2, “Two part antimicrobial boot” (Medtronic, Inc., priority 2006, dated 2012).

How the values were obtained:
[1] = not given; remark: listed apart in the source

| degradation with ethylene oxide sterilization ([1]; ethylene oxide sterilization) | SMILES | degradation under steam sterilization | degradation or loss in antimicrobial activity of rifampin-containing devices treated with ethylene oxide ([1]; devices containing rifampin treated with ethylene oxide, reported by numerous studies) | degradation on ethylene oxide sterilization, as discovered in U.S. patent application Ser. No. 11/535,762 ([1]; ethylene oxide sterilization) |
| --- | --- | --- | --- | --- |
| – | CO[C@H]1/C=C/O[C@@]2(C)Oc3c(C)c(O)c4c(O)c(c(/C=N/N5CCN(C)CC5)c(O)c4c3C2=O)NC(=O)/C(C)=C\C=C\[C@H](C)[C@H](O)[C@@H](C)[C@@H](O)[C@@H](C)[C@H](OC(C)=O)[C@@H]1C [rifampin] | fairly stable | no detectable degradation or no loss in antimicrobial activity | substantial degradation |
| does not appear to substantially degrade | CN(C)c1ccc(O)c2c1C[C@H]1C[C@H]3[C@H](N(C)C)C(O)=C(C(N)=O)C(=O)[C@@]3(O)C(O)=C1C2=O [minocycline] | degrades to unacceptable levels | – | – |
